Experimental data reported in US20060204436A1, “Tritiated growth hormone secretagogue mk-0677” (priority 2003, published 2006).

Biological target: T1, growth hormone secretagogue receptor (Homo sapiens, UniProt Q92847)
T1 construct: expressed in transfected cells; host or cells: HEK 293 (EBNA) cells, membrane preparation
Test: Saturation binding assay using T-MK0677 on transfected HEK 293 (EBNA) cell membranes
Experimental: Human Embryonic Kidney HEK 293 (EBNA) cells were grown in suspension and transfected according to the method previously described (Schlaeger and Christensen, Cytotechnology, 30, 71-83, 1999). The cells were centrifugated for 10 min at 500 rpm, washed once with PBS-0.7 mM EDTA/(4° C.) and resuspended in PBS-EDTA-PI (with Protease inhibitor cocktail), at 2 ml/g of cells. Cells were broken with Ultra Turax level green 3×15″ with 30″ breaks on ice. To remove debris the suspension was centrifugated in a Sorvall SS34 rotor for 20 min at 2,000 rpm. The supernatant was collected and centrifugated for 40 min at 20,000 rpm. The pellet was resuspended in PBS-EDTA. Receptor density was verified with saturation binding assay using T-MK 0677 to be 4.9 pmol/mg protein.
The membrane was resuspended in Binding buffer (25 mM Hepes, pH 7.4, 25 mM MgCl2, 1 mM CaCl2, 0.1% BSA, 0.03% Bacitracine (protease inhibitor)) to 0.1 to 2 μg/well. […]
A filter plate (Packard GF/B unifilter plate) was treated with 50 μL/well 0.5% polyethyleneimine (PEI) in PBS for 15 min. […] Then 50 μL of Microscint 0 were added per well and the T decay counted in a topcount from Packard Instruments.

T1 sequence (Q92847 whole entry): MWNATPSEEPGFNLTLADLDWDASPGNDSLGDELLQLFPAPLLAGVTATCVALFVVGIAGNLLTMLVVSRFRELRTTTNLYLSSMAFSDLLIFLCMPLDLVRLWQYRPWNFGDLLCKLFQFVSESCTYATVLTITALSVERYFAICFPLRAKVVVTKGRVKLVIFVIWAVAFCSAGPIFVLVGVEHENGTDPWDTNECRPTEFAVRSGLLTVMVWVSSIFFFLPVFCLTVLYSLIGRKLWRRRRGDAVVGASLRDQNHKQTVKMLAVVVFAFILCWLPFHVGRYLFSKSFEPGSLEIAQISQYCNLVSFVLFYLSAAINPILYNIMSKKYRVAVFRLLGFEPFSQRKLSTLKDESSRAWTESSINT

## tris-tritiated-2-amino-N-[(1R)-2-[1,2-dihydro-1-(methylsulfonyl)spiro[3H-indole-3,4′-piperidin]-1′-yl]-2-oxo-1-[(phenylmethoxy)methyl]ethyl]-2-methyl-, monomethanesulfonate [T-MK 0677]
  Receptor density: 4.9 pmol/mg protein
